Results: US12060368B2, “Selenophenochromene hydroxamic acids, preparation and use as angiogenesis inhibitors” (Latvian Institute of Organic Synthesis, priority 2018, dated 2024)
Where a name gives a salt, the structure may show the parent alone.

Columns and labels:
MMP 1 = biological target: T1, MMP 1 (Homo sapiens, UniProt P03956); test: MMP Inhibitor Fluorimetric Profiling kit, MMP 1; type: biochemical; details: for IC50: read-out: MMP 1 inhibition IC50; for inhibition at 20 µM: test compound 20 μM
T1 construct: recombinant human MMP-1-10, 12, 13 and 14 catalytic domains; purchased Biornol, USA
T1 sequence (P03956 98-276 limits assumed): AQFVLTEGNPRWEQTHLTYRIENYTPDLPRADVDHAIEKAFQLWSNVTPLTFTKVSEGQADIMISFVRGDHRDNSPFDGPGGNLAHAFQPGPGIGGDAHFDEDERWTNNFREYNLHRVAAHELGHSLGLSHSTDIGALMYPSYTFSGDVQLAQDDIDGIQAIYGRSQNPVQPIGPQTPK
Method: (§1) Inhibition of matrix metalloproteinase enzymes by synthesized selenopheno[3,2-h]chromenes I-1-I-4 was detected on MMP Inhibitor Fluorimetric Profiling kit using NNGH (N-isobutyl-N-4-methoxyphenylsulfonyl)glycyl-hydroxamic acid) as a standard.
(§2) MMP assay: Inhibitors of matrix metalloproteinase enzymes were detected with the use of MMP Inhibitor Fluorimetric Profiling kit (Biornol, USA) accordingly to manufacturer's instructions. MMP activity assays were performed in 96-well plates using the recombinant human MMP-1-10, 12, 13 and 14 catalytic domains and OmniMMP™ fluorogenic substrate SEQ ID No 1: Mca-Pro-Leu-Gly-Leu-Dpa-Ala-Arg-NH2. The test compounds (20 μM) were dissolved in DMSO. The compound NNGH (N-isobutyl-N-(4-methoxyphenylsulfonyl)-glycylhydroxamic acid) was used as a prototypic control inhibitor. The rate of substrate hydrolysis was determined by fluorescence intensity measuring for 10 minutes at 37° C. temperature using a fluorescence plate reader (Tecan infinite M1000, Austria) with excitation at 328 nm and emission at 420 nm. Data analysis was performed using program Graph Pad Prism® 3.0.

MMP 2 = biological target: T2, MMP 2 (Homo sapiens, UniProt P08253); test: MMP Inhibitor Fluorimetric Profiling kit, MMP 2; type: biochemical; details: for IC50: read-out: MMP 2 inhibition IC50; for inhibition at 20 µM: test compound 20 μM
T2 construct: recombinant human MMP-1-10, 12, 13 and 14 catalytic domains; purchased Biornol, USA
T2 sequence (P08253 110-446 limits assumed): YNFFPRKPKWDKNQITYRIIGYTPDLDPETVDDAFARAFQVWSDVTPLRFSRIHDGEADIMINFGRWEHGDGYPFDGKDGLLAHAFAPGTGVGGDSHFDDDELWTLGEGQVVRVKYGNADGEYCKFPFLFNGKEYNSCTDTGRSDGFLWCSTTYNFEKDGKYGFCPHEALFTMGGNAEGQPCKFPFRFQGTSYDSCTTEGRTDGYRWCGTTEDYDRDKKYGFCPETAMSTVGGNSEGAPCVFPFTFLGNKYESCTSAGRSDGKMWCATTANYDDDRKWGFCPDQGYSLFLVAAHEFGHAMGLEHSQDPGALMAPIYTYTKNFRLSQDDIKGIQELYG
Method: as §1, §2

MMP 3 = biological target: T3, MMP 3 (Homo sapiens, UniProt P08254); test: MMP Inhibitor Fluorimetric Profiling kit, MMP 3; type: biochemical; details: for IC50: ne = no effect, read-out: MMP 3 inhibition IC50; for inhibition at 20 µM: test compound 20 μM
T3 construct: recombinant human MMP-1-10, 12, 13 and 14 catalytic domains; purchased Biornol, USA
T3 sequence (P08254 100-272 limits assumed): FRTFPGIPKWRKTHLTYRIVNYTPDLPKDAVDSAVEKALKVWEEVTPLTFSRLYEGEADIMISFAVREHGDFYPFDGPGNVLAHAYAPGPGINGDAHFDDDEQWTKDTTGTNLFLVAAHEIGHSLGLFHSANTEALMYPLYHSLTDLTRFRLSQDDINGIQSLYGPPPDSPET
Method: as §1, §2

MMP 7 = biological target: T4, MMP 7 (Homo sapiens, UniProt P09237); test: MMP Inhibitor Fluorimetric Profiling kit, MMP 7; type: biochemical; details: for inhibition at 20 µM: test compound 20 μM
T4 construct: recombinant human MMP-1-10, 12, 13 and 14 catalytic domains; purchased Biornol, USA
T4 sequence (P09237 95-267): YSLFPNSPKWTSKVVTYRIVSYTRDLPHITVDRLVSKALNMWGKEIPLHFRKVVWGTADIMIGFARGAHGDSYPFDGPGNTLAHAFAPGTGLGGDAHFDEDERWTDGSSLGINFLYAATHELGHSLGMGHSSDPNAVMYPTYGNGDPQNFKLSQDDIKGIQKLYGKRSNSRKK
Method: as §1, §2

MMP 8 = biological target: T5, MMP 8 (Homo sapiens, UniProt P22894); test: MMP Inhibitor Fluorimetric Profiling kit, MMP 8; type: biochemical; details: for IC50: read-out: MMP 8 inhibition IC50; for inhibition at 20 µM: test compound 20 μM
T5 construct: recombinant human MMP-1-10, 12, 13 and 14 catalytic domains; purchased Biornol, USA
T5 sequence (P22894 100-262 limits assumed): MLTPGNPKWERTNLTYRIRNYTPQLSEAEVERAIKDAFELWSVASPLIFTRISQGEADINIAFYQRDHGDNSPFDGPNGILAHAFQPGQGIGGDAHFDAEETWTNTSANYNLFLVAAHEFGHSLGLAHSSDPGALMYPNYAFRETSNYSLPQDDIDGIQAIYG
Method: as §1, §2

MMP 9 = biological target: T6, MMP 9 (Homo sapiens, UniProt P14780); test: MMP Inhibitor Fluorimetric Profiling kit, MMP 9; type: biochemical; details: for IC50: read-out: MMP 9 inhibition IC50; for inhibition at 20 µM: test compound 20 μM
T6 construct: recombinant human MMP-1-10, 12, 13 and 14 catalytic domains; purchased Biornol, USA
T6 sequence (P14780 107-444 limits assumed): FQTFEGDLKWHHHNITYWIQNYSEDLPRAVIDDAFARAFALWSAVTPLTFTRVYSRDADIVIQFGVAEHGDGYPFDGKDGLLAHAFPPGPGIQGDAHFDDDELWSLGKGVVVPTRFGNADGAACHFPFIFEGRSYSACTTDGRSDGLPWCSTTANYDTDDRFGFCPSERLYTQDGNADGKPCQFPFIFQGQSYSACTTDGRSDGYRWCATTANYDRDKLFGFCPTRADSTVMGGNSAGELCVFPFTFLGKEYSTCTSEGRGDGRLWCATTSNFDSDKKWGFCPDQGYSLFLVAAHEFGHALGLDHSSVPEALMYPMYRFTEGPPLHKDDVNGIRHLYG
Method: as §1, §2

MMP 10 (stromelysin 2) = biological target: T7, MMP 10 (stromelysin 2) (Homo sapiens, UniProt P09238); test: MMP Inhibitor Fluorimetric Profiling kit, MMP 10; type: biochemical; details: for IC50: read-out: MMP 10 inhibition IC50; for inhibition at 20 µM: test compound 20 μM
T7 construct: recombinant human MMP-1-10, 12, 13 and 14 catalytic domains; purchased Biornol, USA
T7 sequence (P09238 99-263 limits assumed): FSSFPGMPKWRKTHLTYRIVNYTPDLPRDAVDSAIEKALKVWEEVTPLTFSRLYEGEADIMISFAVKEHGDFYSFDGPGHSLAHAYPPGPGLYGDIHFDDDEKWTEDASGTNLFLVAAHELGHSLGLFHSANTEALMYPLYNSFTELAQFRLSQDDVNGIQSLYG
Method: as §1, §2

MMP 12 = biological target: T8, MMP 12 (Homo sapiens, UniProt P39900); test: MMP Inhibitor Fluorimetric Profiling kit, MMP 12; type: biochemical; details: for MMP 12 inhibition IC50: ne = no effect; for inhibition at 20 µM: test compound 20 μM
T8 construct: recombinant human MMP-1-10, 12, 13 and 14 catalytic domains; purchased Biornol, USA
T8 sequence (P39900 106-263 limits assumed): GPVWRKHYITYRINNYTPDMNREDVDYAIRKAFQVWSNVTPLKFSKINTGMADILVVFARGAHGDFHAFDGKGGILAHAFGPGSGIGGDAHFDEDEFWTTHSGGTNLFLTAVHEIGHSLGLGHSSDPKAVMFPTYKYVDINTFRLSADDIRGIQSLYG
Method: as §1, §2

MMP 13 = biological target: T9, MMP 13 (Homo sapiens, UniProt P45452); test: MMP Inhibitor Fluorimetric Profiling kit, MMP 13; type: biochemical; details: for MMP 13 inhibition IC50 / IC50: ne = no effect; for inhibition at 20 µM: test compound 20 μM; for IC50: read-out: MMP 13 inhibition IC50
T9 construct: recombinant human MMP-1-10, 12, 13 and 14 catalytic domains; purchased Biornol, USA
Method: as §1, §2

MMP 14 = biological target: T10, MMP 14 (Homo sapiens, UniProt P50281); test: MMP Inhibitor Fluorimetric Profiling kit, MMP 14; type: biochemical; details: for IC50: read-out: MMP 14 inhibition IC50; for inhibition at 20 µM: test compound 20 μM
T10 construct: recombinant human MMP-1-10, 12, 13 and 14 catalytic domains; purchased Biornol, USA
Method: as §1, §2

CN1CCN(Cc2[se]c3c(ccc4cc(C(=O)NO)c(=O)oc43)c2Br)CC1 [Compound I-1, 7-Bromo-N-hydroxy-8-((4-methylpiperazin-1-yl)methyl)-2-oxo-2H-selenopheno[3,2-h]chromene-3-carboxamide hydrochloride]
IC50 (MMP 1; ne = no effect): > 20 µM | inhibition at 20 µM (MMP 1): 29 ± 2% | IC50 (MMP 2; ne = no effect): 20 µM | inhibition at 20 µM (MMP 2): 51 ± 2% | IC50 (MMP 3): > 20 µM | inhibition at 20 µM (MMP 3): 34 ± 2% | IC50 (MMP 7; ne = no effect, read-out: MMP 7 inhibition IC50): > 20 µM | inhibition at 20 µM (MMP 7): 28 ± 2% | IC50 (MMP 8; ne = no effect): 20 µM | inhibition at 20 µM (MMP 8): 56 ± 2% | IC50 (MMP 9; ne = no effect): > 20 µM | inhibition at 20 µM (MMP 9): 35 ± 5% | IC50 (MMP 10 (stromelysin 2); ne = no effect): 1.92 µM | inhibition at 20 µM (MMP 10 (stromelysin 2)): ≤ 97% | MMP 12 inhibition IC50 (MMP 12): ne | inhibition at 20 µM (MMP 12): 0% | MMP 13 inhibition IC50 (MMP 13): ne | inhibition at 20 µM (MMP 13): 0% | IC50 (MMP 14; ne = no effect): 18 ± 2 µM | inhibition at 20 µM (MMP 14): 58 ± 2%

O=C(NO)c1cc2ccc3c(Br)c(CN4CCCNCC4)[se]c3c2oc1=O [Compound I-4, 8-((1,4-Diazepan-1-yl)methyl)-7-bromo-N-hydroxy-2-oxo-2H-selenopheno[3,2-h]chromene-3-carboxamide hydrochloride]
IC50 (MMP 1; ne = no effect): 5.21 ± 0.62 µM | inhibition at 20 µM (MMP 1): 99 ± 8% | IC50 (MMP 2; ne = no effect): 1.86 ± 0.21 µM | inhibition at 20 µM (MMP 2): 99 ± 6% | IC50 (MMP 3): > 20 µM | inhibition at 20 µM (MMP 3): 34 ± 8% | MMP 7 inhibition IC50 (MMP 7; ne = no effect): ne | inhibition at 20 µM (MMP 7): 16 ± 3% | IC50 (MMP 8; ne = no effect): 1.86 ± 0.22 µM | inhibition at 20 µM (MMP 8): 100 ± 9% | IC50 (MMP 9; ne = no effect): 1.92 ± 0.31 µM | inhibition at 20 µM (MMP 9): 99 ± 6% | IC50 (MMP 10 (stromelysin 2); ne = no effect): 1.71 ± 0.18 µM | inhibition at 20 µM (MMP 10 (stromelysin 2)): 99 ± 8% | MMP 12 inhibition IC50 (MMP 12): ne | inhibition at 20 µM (MMP 12): 7 ± 3% | IC50 (MMP 13): 4.74 ± 0.95 µM | inhibition at 20 µM (MMP 13): 95 ± 8% | IC50 (MMP 14; ne = no effect): 4.04 ± 0.97 µM | inhibition at 20 µM (MMP 14): 99 ± 7%

O=C(NO)c1cc2ccc3c(Br)c(CCN4CCNCC4)[se]c3c2oc1=O (as salt: hydrochloride) [Compound I-3, 7-Bromo-N-hydroxy-2-oxo-8-(2-(piperazin-1-yl)ethyl)-2H-selenopheno[3,2-h]chromene-3-carboxamide hydrochloride]
melting point: > 200 °C

COc1ccc(S(=O)(=O)N(CC(=O)NO)CC(C)C)cc1 [NNGH, N-isobutyl-N-(4-methoxyphenylsulfonyl)-glycylhydroxamic acid, reference compound]
MMP 1 inhibition (MMP 1; control inhibitor 1.3 μM): 100% | MMP 2 inhibition (MMP 2; control inhibitor 1.3 μM): 100% | MMP 3 inhibition (MMP 3; control inhibitor 1.3 μM): 100% | MMP 7 inhibition (MMP 7; control inhibitor 1.3 μM): 7.2% | MMP 8 inhibition (MMP 8; control inhibitor 1.3 μM): 100% | MMP 9 inhibition (MMP 9; control inhibitor 1.3 μM): 100% | MMP 10 inhibition (MMP 10 (stromelysin 2); control inhibitor 1.3 μM): 100% | MMP 12 inhibition (MMP 12; control inhibitor 1.3 μM): 100% | MMP 13 inhibition (MMP 13; control inhibitor 1.3 μM): 100% | MMP 14 inhibition (MMP 14; control inhibitor 1.3 μM): 100%

O=C(NO)c1cc2ccc3c(Br)c(CCN4CCNCC4)[se]c3c2oc1=O [Compound I-3, 7-Bromo-N-hydroxy-2-oxo-8-(2-(piperazin-1-yl)ethyl)-2H-selenopheno[3,2-h]chromene-3-carboxamide hydrochloride]
IC50 (MMP 1; ne = no effect): 6.66 ± 0.85 µM | inhibition at 20 µM (MMP 1): 94 ± 2% | IC50 (MMP 2; ne = no effect): 1.13 ± 0.08 µM | inhibition at 20 µM (MMP 2): 100 ± 1% | IC50 (MMP 3): > 20 µM | inhibition at 20 µM (MMP 3): 35 ± 5% | MMP 7 inhibition IC50 (MMP 7; ne = no effect): ne | inhibition at 20 µM (MMP 7): 20 ± 3% | IC50 (MMP 8; ne = no effect): 1.61 ± 0.14 µM | inhibition at 20 µM (MMP 8): 100 ± 1% | IC50 (MMP 9; ne = no effect): 1.06 ± 0.07 µM | inhibition at 20 µM (MMP 9): 99 ± 1% | IC50 (MMP 10 (stromelysin 2); ne = no effect): 0.96 µM | inhibition at 20 µM (MMP 10 (stromelysin 2)): 100 ± 1% | MMP 12 inhibition IC50 (MMP 12): ne | inhibition at 20 µM (MMP 12): 0% | IC50 (MMP 13): 4.95 ± 1.05 µM | inhibition at 20 µM (MMP 13): 97 ± 4% | IC50 (MMP 14; ne = no effect): 3.88 ± 0.99 µM | inhibition at 20 µM (MMP 14): 99 ± 4%

O=C(NO)c1cc2ccc3c(Br)c(CN4CCNCC4)[se]c3c2oc1=O (as salt: hydrochloride) [Compound I-2, 7-Bromo-N-hydroxy-2-oxo-8-(piperazin-1-ylmethyl)-2H-selenopheno[3,2-h]chromene-3-carboxamide hydrochloride]
melting point: > 200 °C

CN1CCN(Cc2[se]c3c(ccc4cc(C(=O)NO)c(=O)oc43)c2Br)CC1 (as salt: hydrochloride) [Compound I-1, 7-Bromo-N-hydroxy-8-((4-methylpiperazin-1-yl)methyl)-2-oxo-2H-selenopheno[3,2-h]chromene-3-carboxamide hydrochloride]
melting point: > 200 °C

O=C(NO)c1cc2ccc3c(Br)c(CN4CCNCC4)[se]c3c2oc1=O [Compound I-2, 7-Bromo-N-hydroxy-2-oxo-8-(piperazin-1-ylmethyl)-2H-selenopheno[3,2-h]chromene-3-carboxamide hydrochloride]
MMP 1 inhibition IC50 (MMP 1; ne = no effect): 1.37+6.27 μM | IC50 (MMP 1; ne = no effect): 5.93 ± 0.54 µM | inhibition at 20 µM (MMP 1): 94 ± 1% | MMP 2 inhibition IC50 (MMP 2; ne = no effect): 1.37+6.27 μM | IC50 (MMP 2; ne = no effect): 1.57 ± 0.18 µM | inhibition at 20 µM (MMP 2): 98 ± 1% | IC50 (MMP 3): > 20 µM | inhibition at 20 µM (MMP 3): 31 ± 7% | MMP 7 inhibition IC50 (MMP 7; ne = no effect): ne | inhibition at 20 µM (MMP 7): 20 ± 1% | MMP 8 inhibition IC50 (MMP 8; ne = no effect): 1.37+6.27 μM | IC50 (MMP 8; ne = no effect): 1.64 ± 0.25 µM | inhibition at 20 µM (MMP 8): 100 ± 1% | MMP 9 inhibition IC50 (MMP 9; ne = no effect): 1.37+6.27 μM | IC50 (MMP 9; ne = no effect): 1.48 ± 0.11 µM | inhibition at 20 µM (MMP 9): 100 ± 1% | MMP 10 inhibition IC50 (MMP 10 (stromelysin 2); ne = no effect): 1.37+6.27 μM | IC50 (MMP 10 (stromelysin 2); ne = no effect): 1.37 ± 0.85 µM | inhibition at 20 µM (MMP 10 (stromelysin 2)): 99% | MMP 12 inhibition IC50 (MMP 12): ne | inhibition at 20 µM (MMP 12): 5 ± 1% | MMP 13 inhibition IC50 (MMP 13): 1.37+6.27 μM | IC50 (MMP 13): 6.27 ± 0.65 µM | inhibition at 20 µM (MMP 13): 98 ± 1% | MMP 14 inhibition IC50 (MMP 14; ne = no effect): 1.37+6.27 μM | IC50 (MMP 14; ne = no effect): 4.35 ± 1.02 µM | inhibition at 20 µM (MMP 14): 98 ± 2%
